Experiments:
[1] = target: SARS-CoV-2 Main Protease (SARS-CoV-2) (UniProt P0DTD1)
Method: Compounds were seeded into assay-ready plates (Greiner 384 low volume, cat 784900) using an Echo 555 acoustic dispenser, and DMSO was back-filled for a uniform concentration in assay plates (DMSO concentration maximum 1%) Screening assays were performed in duplicate at 20µM and 50µM. […] Dose response assays were performed in 12 point dilutions of 2-fold, typically beginning at 100µM. […] Reagents for Mpro assay were dispensed into the assay plate in 10µl volumes for a final volume of 20µL.
Mpro was pre-incubated for 15 minutes at room temperature with compound before addition of substrate and a further 30 minute incubation. Protease reaction was measured in a BMG Pherastar FS with a 480/520 ex/em filter set. Raw data was mapped and normalized to high (Protease with DMSO) and low (No Protease) controls using Genedata Screener software.

[2] = target: SARS-CoV-2 Main Protease (SARS-CoV-2) (UniProt P0DTD1); remark: listed apart in the source

Compound	inhibition ([1]; 20.0 µM)	inhibition ([1]; 50.0 µM)	relative solubility at 20 uM	relative solubility at 100 uM	inhibition ([2]; 20.0 µM)	inhibition ([2]; 50.0 µM)	IC50 [2]
COc1ccc2[nH]cc(CCNC(C)=O)c2c1	1.37%	-0.962%	1	0.99	0%	–	–
O=C(Nc1nncn1C1CC1)[C@H]1CCOc2ccc(Cl)cc21 (stereo in doubt)	-13.3%	-7.61%	1.01	1	–	-19.4%	–
C=CC(=O)N(c1ccc(C(C)(C)C)cc1)C(C(=O)NCc1cccnc1)c1cccnc1 (centres undefined)	41.2%	59.3%	1	0.96	18.2%	61.3%	–
Cc1ccc(NCc2cc(NC(=O)OC(C)(C)C)ccc2Br)cn1	-3.3%	9.52%	0.9	0.7	–	35.9%	–
C=CC(=O)N(c1cc(C)cc(N)c1)C(C(=O)NC(C)(C)C)c1cccnc1 (centres undefined)	-15.1%	-19.4%	0.99	0.98	0%	0%	–
N#Cc1ccc(O)c(NC(=O)Cc2cccnc2)c1	-15.4%	-8.48%	1	0.95	–	0%	–
CN(Cc1ccc(OCc2cccs2)cc1)C(=O)Cn1nnc2ccccc21	2.49%	10.2%	0.56	-0.05	0%	–	–
C=CC(=O)N(c1ccc(C(F)(F)F)cc1)C(C(=O)Nc1c(C)cccc1CC)c1cccnc1 (centres undefined)	22.3%	38.6%	0.89	0.79	23.9%	–	–
C=CC(=O)N(C1CCC2(CCCC2)CC1)C(C(=O)NC(C)(C)C)c1cccnc1 (centres undefined)	-5.6%	6.94%	1	0.97	0%	–	–
Cc1nnc(NC(=O)Cc2cccc(Cl)c2F)s1	1.02%	-14.8%	0.99	0.68	–	0%	–
O=C(Nc1cccnc1)c1cccc(Cl)c1	5.47%	6.67%	1	0.92	0%	–	–
C=CC(=O)N1CCN(Cc2c[nH]c3ccc(C#N)cc23)CC1	-36.2%	-27.1%	0.97	0.92	0%	0%	–
O=C(Cc1cncnc1)Nc1cccc(CCCc2ccccc2)c1	1.12%	10.1%	0.96	0.94	0%	0%	–
COc1ccccc1N1CCN(C(=O)c2cc(=O)[nH]c3ccccc23)CC1	39%	62.8%	1	0.99	–	14.8%	–
Cc1ccncc1-c1nnc(-c2cccc(Cl)c2)o1	1.73%	13.8%	1	0.99	–	0.631%	–
Cc1nnc(CC(=O)Nc2cccnc2)s1	-1.16%	-0.0294%	1	0.99	-1.82%	0%	–
C=CC(=O)N(c1ccc(C(F)(F)F)cc1)C(C(=O)Nc1ccccc1Br)c1cccnc1 (centres undefined)	15.6%	22%	0.94	0.83	9.6%	–	–
CCN1CCN(Cc2ccccc2CNC2=NC[C@@H](C3CCCC3)N2)CC1 (stereo in doubt)	-1.16%	-20.8%	1	1	–	-30.8%	–
O=C(Nc1ccccc1)Nc1cnc2ccc([N+](=O)[O-])cc2n1	-15.3%	9.06%	0.86	0.84	–	0.772%	–

Compound	inhibition ([1]; 20.0 µM)	inhibition ([1]; 50.0 µM)	relative solubility at 20 uM	relative solubility at 100 uM	inhibition ([2]; 20.0 µM)	inhibition ([2]; 50.0 µM)	IC50 [2]
COc1ccc(N2CCN(C(=O)c3cc(=O)[nH]c4ccccc34)CC2)cc1	61.4%	81.7%	1	1	–	51.4%	95.7 µM
C=CC(=O)N1CCN(Cc2cccc3ccccc23)CC1	-4.32%	3.35%	1	0.99	0%	–	–
CC1(C)CCCN1S(=O)(=O)c1ccc2c(c1)C(=O)C(=O)N2	-5.91%	-10.7%	0.94	0.89	–	0%	–
N#Cc1ccc(S(=O)(=O)N2CCN(C(=O)c3cc(=O)[nH]c4cc(F)ccc34)CC2)cc1	6.9%	39.9%	0.94	0.94	–	0.23%	–
Cc1ccncc1NC(=O)CCc1ccn[nH]1	18.9%	-26.3%	1	1	–	-1.76%	–
O=C1C(=O)N(Cc2ccc(Br)cc2)c2c(Br)cccc21	1.5%	-1.15%	0.99	0.97	–	100%	0.485 µM
Cc1ccc(S(=O)(=O)NC2CCN(C(=O)CCl)CC2)cc1	25.1%	59.3%	1	1.01	54.9%	–	18.5 µM
O=C(Cc1ccccc1OC1CCOC1)OCc1cnn[nH]1 (centres undefined)	–	20.7%	1	1	0%	0%	–
CS(=O)(=O)N1CCN(C(=O)CCl)CC1c1ccccc1 (centres undefined)	64.6%	69.5%	1	1	87.5%	95.9%	3.31 µM
CC(C)(C)CC(=O)C(C#N)C(=O)Nc1ccccc1 (centres undefined)	–	21.6%	1	1	2.52%	0%	–
C=CC(=O)N(c1ccc(C(C)(C)C)cc1)C(C(=O)NCCC(=O)OCC)c1cccnc1 (centres undefined)	27.8%	46.3%	0.99	0.97	12.3%	43.7%	–
Cc1ccncc1NC(=O)CC(O)C1CC1 (centres undefined)	-48%	1.39%	1	1.01	–	2.72%	–
Cc1ccncc1NC(=O)Cc1cccc(OC(F)(F)F)c1	-3.16%	-22.5%	0.98	0.98	–	12.6%	–
N#Cc1ccccc1S(=O)(=O)N1CCN(C(=O)c2cc(=O)[nH]c3ccc(F)cc23)CC1	14.7%	29.9%	0.99	0.92	–	29.9%	–
O=C(C1CCN(c2ccncc2)CC1)N1CCCCC1	–	-18.6%	0.99	1	0%	-0.3%	–
C=CC(=O)N(c1ccc(C2(C)CC2)cc1)C(C(=O)Nc1ccc(Cl)cc1)c1cccnc1 (centres undefined)	–	-9.81%	0.95	0.56	0%	-0.67%	–
O=C(CCn1ccnn1)NC(CN1CCOCC1)c1ccccc1 (centres undefined)	2.31%	5.19%	1	1	0%	0%	–
C=CC(=O)N(c1ccc(C(C)(C)C)cc1)C(C(=O)Nc1ccc(OC)nc1)c1cccnc1 (centres undefined)	1.08%	13.4%	1	1	0%	0%	–
O=C(Cc1cccc(Cl)c1)Nn1cnc2ccccc21	74.2%	87.7%	1	1	–	45.3%	4.27 µM
